Laboratory results from patent US20020137929A1, “1 - (3-heterocyclylphenyl) isothiourea, -isourea, -guanidine and -amidine herbicidal agents” (Intellectual Property Department, BASF Aktiengesellschaft, priority 1998, published 2002).

Experiments:
ORYSAT (Rice, Tebonnet) [1] = assay: Preemergence herbicidal evaluation; type: in vivo, Oryza sativa, (L.) Tebonnet; conditions: rated 4-5 weeks after treatment
Procedure, shortened: (§1)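 In this greenhouse assay, monocot and dicot seeds are planted in soil and treated prior to emergence with an aqueous acetone spray (about 0.0156-0.500 kg/ha). Plants are assessed visually against control on a 0-9 scale after 4-5 weeks.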

ORYSAT (Rice, Tebonnet) [2] = assay: Postemergence herbicidal evaluation; type: in vivo, Oryza sativa, (L.) Tebonnet; conditions: postemergence
Procedure, shortened: (§2)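 Two-week seedlings sprayed postemergence at 40 psi; formulation: 1:1 acetone/water, 0.5% TWEEN 20; application ≈0.0156–0.500 kg/ha. Greenhouse grow-out, then 0–9 visual scoring at 4–5 weeks.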

AMBEL (Ragweed, Common) = assay: Preemergence herbicidal evaluation; type: in vivo, Ambrosia artemisifolia; conditions: rated 4-5 weeks after treatment
Procedure, shortened: as §1

[3] = system: CHEAL (Lambsquarters, Common); assay: Postemergence herbicidal evaluation; type: in vivo, Chenopodium album; conditions: postemergence
Procedure, shortened: as §2

CASOB (Sicklepod) = assay: Postemergence herbicidal evaluation; type: in vivo, Cassia obtusifolia; conditions: postemergence
Procedure, shortened: as §2

GALAP (Galium) = assay: Postemergence herbicidal evaluation; type: in vivo, Galium aparine; conditions: postemergence
Procedure, shortened: as §2

MOOVA (Monochoria) = assay: Preemergence weed control under flooded paddy conditions; type: in vivo, Monochoria vaginalis; conditions: rated 3-4 weeks after treatment
Procedure, shortened: (§3)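 Silt loam, seeds in top 0.5 cm; flood held 1.5-3 cm; test cpd as acetone/water 50/50 into flood water, ~0.0313-0.500 kg/ha a.i.; greenhouse 3-4 wk; visual 0-9 score vs control.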

[4] = system: GLXMAW (Soybean, Williams); assay: Preemergence herbicidal evaluation; type: in vivo, Glycine max, (L.) Merr. cv Williams; conditions: rated 4-5 weeks after treatment
Procedure, shortened: as §1

SETVI (Foxtail, Green) = assay: Preemergence herbicidal evaluation; type: in vivo, Setaria viridis; conditions: rated 4-5 weeks after treatment
Procedure, shortened: as §1

CYPSE (Flatsedge) = assay: Preemergence weed control under flooded paddy conditions; type: in vivo, Cyperus serotinus; conditions: rated 3-4 weeks after treatment
Procedure, shortened: as §3

ZEAMX (Corn, Field) = assay: Postemergence herbicidal evaluation; type: in vivo, Zea mays; conditions: postemergence
Procedure, shortened: as §2

CC(C)N1C(=O)CSC1=Nc1cc(-n2c(=O)cc(C(F)(F)F)n(C)c2=O)c(F)cc1Cl [Compound 164, 3-{4-Chloro-2-fluoro-5-[(3-isopropyl-4-oxo-2-thiazolidinylidene)amino]phenyl}-1-methyl-6-(trifluoromethyl)-2,4(1H,3H)-pyrimidinedione]
Preemergence herbicidal rating ORYSAT (ORYSAT (Rice, Tebonnet) [1]; 0.0156 kg/ha): 1.0
Preemergence herbicidal rating ORYSAT (ORYSAT (Rice, Tebonnet) [1]; 0.0313 kg/ha): 1.0
Preemergence herbicidal rating ORYSAT (ORYSAT (Rice, Tebonnet) [1]; 0.0625 kg/ha): 3.0
Preemergence herbicidal rating ORYSAT (ORYSAT (Rice, Tebonnet) [1]; 0.1250 kg/ha): 5.0
Preemergence herbicidal rating ORYSAT (ORYSAT (Rice, Tebonnet) [1]; 0.2500 kg/ha): 7.0
Preemergence herbicidal rating ORYSAT (ORYSAT (Rice, Tebonnet) [1]; 0.5000 kg/ha): 9.0
Herbicidal rating ORYSAT (ORYSAT (Rice, Tebonnet) [2]; rate 0.0156 kg/ha): 2.5
Herbicidal rating ORYSAT (ORYSAT (Rice, Tebonnet) [2]; rate 0.0313 kg/ha): 4.0
Herbicidal rating ORYSAT (ORYSAT (Rice, Tebonnet) [2]; rate 0.0625 kg/ha): 5.0
Herbicidal rating ORYSAT (ORYSAT (Rice, Tebonnet) [2]; rate 0.1250 kg/ha): 5.0
Preemergence herbicidal rating AMBEL (AMBEL (Ragweed, Common); 0.0156 kg/ha): 6.0
Preemergence herbicidal rating AMBEL (AMBEL (Ragweed, Common); 0.0313 kg/ha): 7.0
Preemergence herbicidal rating AMBEL (AMBEL (Ragweed, Common); 0.0625 kg/ha): 7.0
Preemergence herbicidal rating AMBEL (AMBEL (Ragweed, Common); 0.1250 kg/ha): 7.0
Preemergence herbicidal rating AMBEL (AMBEL (Ragweed, Common); 0.2500 kg/ha): 9.0
Preemergence herbicidal rating AMBEL (AMBEL (Ragweed, Common); 0.5000 kg/ha): 9.0
Herbicidal rating CHEAL ([3]; rate 0.0156 kg/ha): 9.0
Herbicidal rating CHEAL ([3]; rate 0.0313 kg/ha): 9.0
Herbicidal rating CHEAL ([3]; rate 0.0625 kg/ha): 9.0
Herbicidal rating CHEAL ([3]; rate 0.1250 kg/ha): 9.0
Herbicidal rating CASOB (CASOB (Sicklepod); rate 0.0156 kg/ha): 2.0
Herbicidal rating CASOB (CASOB (Sicklepod); rate 0.0313 kg/ha): 2.0
Herbicidal rating CASOB (CASOB (Sicklepod); rate 0.0625 kg/ha): 5.0
Herbicidal rating CASOB (CASOB (Sicklepod); rate 0.1250 kg/ha): 6.0
Herbicidal rating GALAP (GALAP (Galium); rate 0.0156 kg/ha): 3.0
Herbicidal rating GALAP (GALAP (Galium); rate 0.0313 kg/ha): 4.0
Herbicidal rating GALAP (GALAP (Galium); rate 0.0625 kg/ha): 7.0
Herbicidal rating GALAP (GALAP (Galium); rate 0.1250 kg/ha): 6.0
herbicidal effect rating, MOOVA (MOOVA (Monochoria); 0.0313 kg/ha): 8.0
herbicidal effect rating, MOOVA (MOOVA (Monochoria); 0.0625 kg/ha): 9.0
herbicidal effect rating, MOOVA (MOOVA (Monochoria); 0.1250 kg/ha): 9.0
herbicidal effect rating, MOOVA (MOOVA (Monochoria); 0.2500 kg/ha): 9.0
Preemergence herbicidal rating GLXMAW ([4]; 0.0156 kg/ha): 1.0
Preemergence herbicidal rating GLXMAW ([4]; 0.0313 kg/ha): 2.0
Preemergence herbicidal rating GLXMAW ([4]; 0.0625 kg/ha): 5.0
Preemergence herbicidal rating GLXMAW ([4]; 0.1250 kg/ha): 7.0
Preemergence herbicidal rating GLXMAW ([4]; 0.2500 kg/ha): 7.0
Preemergence herbicidal rating GLXMAW ([4]; 0.5000 kg/ha): 7.0
Preemergence herbicidal rating SETVI (SETVI (Foxtail, Green); 0.0156 kg/ha): 4.0
Preemergence herbicidal rating SETVI (SETVI (Foxtail, Green); 0.0313 kg/ha): 9.0
Preemergence herbicidal rating SETVI (SETVI (Foxtail, Green); 0.0625 kg/ha): 9.0
Preemergence herbicidal rating SETVI (SETVI (Foxtail, Green); 0.1250 kg/ha): 9.0
Preemergence herbicidal rating SETVI (SETVI (Foxtail, Green); 0.2500 kg/ha): 9.0
Preemergence herbicidal rating SETVI (SETVI (Foxtail, Green); 0.5000 kg/ha): 9.0
herbicidal effect rating, CYPSE (CYPSE (Flatsedge); 0.0313 kg/ha): 0.0
herbicidal effect rating, CYPSE (CYPSE (Flatsedge); 0.0625 kg/ha): 0.0
herbicidal effect rating, CYPSE (CYPSE (Flatsedge); 0.1250 kg/ha): 3.0
herbicidal effect rating, CYPSE (CYPSE (Flatsedge); 0.2500 kg/ha): 7.0
Herbicidal rating ZEAMX (ZEAMX (Corn, Field); rate 0.0156 kg/ha): 5.0
Herbicidal rating ZEAMX (ZEAMX (Corn, Field); rate 0.0313 kg/ha): 5.0
Herbicidal rating ZEAMX (ZEAMX (Corn, Field); rate 0.0625 kg/ha): 5.5
Herbicidal rating ZEAMX (ZEAMX (Corn, Field); rate 0.1250 kg/ha): 6.5

Cn1c(C(F)(F)F)cc(=O)n(-c2cc(N=C3SCC(=O)N3C3CCCC3)c(Cl)cc2F)c1=O [Compound 166, 3-{4-Chloro-5-[(3-cyclopentyl-4-oxo-2-thiazolidinylidene)amino]-2-fluorophenyl}-1-methyl-6-(trifluoromethyl)-2,4(1H,3H)-pyrimidinedione]
Preemergence herbicidal rating ORYSAT (ORYSAT (Rice, Tebonnet) [1]; 0.0156 kg/ha): 0.0
Preemergence herbicidal rating ORYSAT (ORYSAT (Rice, Tebonnet) [1]; 0.0313 kg/ha): 0.0
Preemergence herbicidal rating ORYSAT (ORYSAT (Rice, Tebonnet) [1]; 0.0625 kg/ha): 1.0
Preemergence herbicidal rating ORYSAT (ORYSAT (Rice, Tebonnet) [1]; 0.1250 kg/ha): 1.0
Preemergence herbicidal rating ORYSAT (ORYSAT (Rice, Tebonnet) [1]; 0.2500 kg/ha): 1.0
Preemergence herbicidal rating ORYSAT (ORYSAT (Rice, Tebonnet) [1]; 0.5000 kg/ha): 5.0
Herbicidal rating ORYSAT (ORYSAT (Rice, Tebonnet) [2]; rate 0.0156 kg/ha): 1.0
Herbicidal rating ORYSAT (ORYSAT (Rice, Tebonnet) [2]; rate 0.0313 kg/ha): 0.5
Herbicidal rating ORYSAT (ORYSAT (Rice, Tebonnet) [2]; rate 0.0625 kg/ha): 1.5
Herbicidal rating ORYSAT (ORYSAT (Rice, Tebonnet) [2]; rate 0.1250 kg/ha): 2.0
Preemergence herbicidal rating AMBEL (AMBEL (Ragweed, Common); 0.0156 kg/ha): 1.0
Preemergence herbicidal rating AMBEL (AMBEL (Ragweed, Common); 0.0313 kg/ha): 0.0
Preemergence herbicidal rating AMBEL (AMBEL (Ragweed, Common); 0.0625 kg/ha): 3.0
Preemergence herbicidal rating AMBEL (AMBEL (Ragweed, Common); 0.1250 kg/ha): 6.0
Preemergence herbicidal rating AMBEL (AMBEL (Ragweed, Common); 0.2500 kg/ha): 7.0
Preemergence herbicidal rating AMBEL (AMBEL (Ragweed, Common); 0.5000 kg/ha): 7.0
Herbicidal rating CHEAL ([3]; rate 0.0156 kg/ha): 0.0
Herbicidal rating CHEAL ([3]; rate 0.0313 kg/ha): 1.0
Herbicidal rating CHEAL ([3]; rate 0.0625 kg/ha): 4.0
Herbicidal rating CHEAL ([3]; rate 0.1250 kg/ha): 7.0
Herbicidal rating CASOB (CASOB (Sicklepod); rate 0.0156 kg/ha): 0.0
Herbicidal rating CASOB (CASOB (Sicklepod); rate 0.0313 kg/ha): 0.0
Herbicidal rating CASOB (CASOB (Sicklepod); rate 0.0625 kg/ha): 0.0
Herbicidal rating CASOB (CASOB (Sicklepod); rate 0.1250 kg/ha): 1.0
Herbicidal rating GALAP (GALAP (Galium); rate 0.0156 kg/ha): 0.0
Herbicidal rating GALAP (GALAP (Galium); rate 0.0313 kg/ha): 0.0
Herbicidal rating GALAP (GALAP (Galium); rate 0.0625 kg/ha): 0.0
Herbicidal rating GALAP (GALAP (Galium); rate 0.1250 kg/ha): 2.0
herbicidal effect rating, MOOVA (MOOVA (Monochoria); 0.0313 kg/ha): 9.0
herbicidal effect rating, MOOVA (MOOVA (Monochoria); 0.0625 kg/ha): 9.0
herbicidal effect rating, MOOVA (MOOVA (Monochoria); 0.1250 kg/ha): 9.0
herbicidal effect rating, MOOVA (MOOVA (Monochoria); 0.2500 kg/ha): 9.0
Preemergence herbicidal rating GLXMAW ([4]; 0.0156 kg/ha): 0.0
Preemergence herbicidal rating GLXMAW ([4]; 0.0313 kg/ha): 2.0
Preemergence herbicidal rating GLXMAW ([4]; 0.0625 kg/ha): 2.0
Preemergence herbicidal rating GLXMAW ([4]; 0.1250 kg/ha): 2.0
Preemergence herbicidal rating GLXMAW ([4]; 0.2500 kg/ha): 6.0
Preemergence herbicidal rating GLXMAW ([4]; 0.5000 kg/ha): 6.0
Preemergence herbicidal rating SETVI (SETVI (Foxtail, Green); 0.0156 kg/ha): 0.0
Preemergence herbicidal rating SETVI (SETVI (Foxtail, Green); 0.0313 kg/ha): 0.0
Preemergence herbicidal rating SETVI (SETVI (Foxtail, Green); 0.0625 kg/ha): 1.0
Preemergence herbicidal rating SETVI (SETVI (Foxtail, Green); 0.1250 kg/ha): 6.0
Preemergence herbicidal rating SETVI (SETVI (Foxtail, Green); 0.2500 kg/ha): 6.0
Preemergence herbicidal rating SETVI (SETVI (Foxtail, Green); 0.5000 kg/ha): 9.0
herbicidal effect rating, CYPSE (CYPSE (Flatsedge); 0.0313 kg/ha): 0.0
herbicidal effect rating, CYPSE (CYPSE (Flatsedge); 0.0625 kg/ha): 0.0
herbicidal effect rating, CYPSE (CYPSE (Flatsedge); 0.1250 kg/ha): 0.0
herbicidal effect rating, CYPSE (CYPSE (Flatsedge); 0.2500 kg/ha): 0.0
Herbicidal rating ZEAMX (ZEAMX (Corn, Field); rate 0.0156 kg/ha): 3.0
Herbicidal rating ZEAMX (ZEAMX (Corn, Field); rate 0.0313 kg/ha): 3.0
Herbicidal rating ZEAMX (ZEAMX (Corn, Field); rate 0.0625 kg/ha): 3.5
Herbicidal rating ZEAMX (ZEAMX (Corn, Field); rate 0.1250 kg/ha): 4.5
